Each structure is given as a SMILES string. Read-outs that look alike come from different tables or passages of the source.

One series concerns MES-induced seizures. The series can be described thus: Maximal electroshock (MES) seizure test, mice (ASP, methylcellulose suspension). The series is classed as in vivo. On the procedure:
SKA-19 was tested under the auspices of the National Institutes of Health's Anticonvulsant Screening Program (ASP). Experiments were performed in male albino CF (Carworth Farms) No. 1 mice or Sprague-Dawley rats according to the established protocols of the ASP (White et al., 2002). SKA-19 was suspended in 0.5% methylcellulose and administered in a volume that permits accuracy of dosage without excessively contributing to total body fluid (0.01 ml/g body weight for mice and 0.04 ml/10 g body weight for rats).
Animals received an electrical stimulus of 0.2 s duration (50 mA in mice and 150 mA in rat at 60 Hz) delivered via corneal electrodes primed with an electrolyte solution containing 0.5% tetracaine. Animals were restrained by hand and released immediately after stimulation to permit observation of the seizure throughout its entire course. In the initial screens to identify anticonvulsant activity mice were tested at 30 minutes and 4 hours following doses of 3, 10, 30, 100 and 300 mg/kg of SKA-19 and rats tested at time intervals between 0.25 and 4 hours following a standard oral dose of 30 mg/kg. In the subsequent, more quantitative tests at least four doses of SKA-19 (n=8 per dose) were tested at the previously determined time of peak effect (TPE). Abolition of hindlimb tonic extension indicates the test compound's ability to inhibit MES-induced seizure spread. Tonic extension is considered abolished if the hind limbs are not fully extended at 180° with the body.
Background: Protection in the maximal electroshock model is a classic sign of anticonvulsant action.

Series [1] is described as follows: Acute toxicity, rotorod test in mice. The format is in vivo. The following applies: mouse, in vivo, ip, mice, i.p., suspension, read-out: TD50, ability of mice to stay on the rotorod. On the procedure:
(§1) Abnormal neurological status in mice following SKA-19 administration was evaluated with the rotorod test. When a normal mouse is placed on a rod 1 inch in diameter that rotates at a speed of 6 rpm, the mouse can maintain equilibrium for a long time. Inability of the mouse to stay on the rotating rod in three trials for 1 min is taken as an indication of motor impairment. […] Mice were placed on a horizontally oriented grid (consisting of parallel 1.5-mm diameter rods situated 1 cm apart), and the grid was inverted. Animals that fell from the grid within 10 s were scored as impaired.
Background: Falling from the rotarod earlier than controls is read as motor impairment.

In a further series the test system is mice. The series can be described thus: Acute toxicity, rotorod test in mice. The series is classed as in vivo. On the procedure:
as §1

The target of another series is KCa2.3 (SK3) (Homo sapiens (Human), UniProt Q9UGI6). The series can be described thus: Whole-cell patch-clamp, KCa2.3. The following applies: 250 nM free intracellular Ca2+; read-out: EC50 or IC50, KCa2.3. The format is cell-based. On the procedure: HEK-293 or COS-7 cells stably expressing hKCa2.1, rKCa2.2, and hKCa2.3 have been described previously (Sankaranarayanan et al., 2009). Cells were held at −80 mV and KCa currents elicited by dialysis with a K^+ aspartate based internal containing 250 nM free Ca^2+ (pH 7.2, 290 mOsm, pipette resistance 1.5 MΩ). To reduce currents from native chloride channels, Na^+ aspartate Ringer was used as an external solution. KCa2 currents were recorded with 200-ms voltage ramps from −120 to +40 mV applied every 10 s, and the fold increase of slope conductance at −80 mV by drug was taken as a measure of channel activation. Data analysis, fitting, and plotting were performed with IGOR-Pro (Wavemetrics, Lake Oswego, Oreg., USA) and Origin 9.0 (OriginLab, Northampton, Mass., USA).

The next series has as its target Nav1.4 (Homo sapiens (Human), UniProt P35499). As to the kind of experiment: Voltage-clamp, Nav1.4 in HEK-293 cells. The format is cell-based. On the procedure: All experiments were conducted at room temperature (22-24° C.) with an EPC-10 amplifier and Pulse software (HEKA, Lambrecht/Pfalz, Germany) in the whole-cell mode of the patch-clamp technique. Human embryonic kidney (HEK)-293 cell lines stably expressing hNav1.1, hNav1.5, hNav1.7 channels (generously provided by Dr. Christopher Lossin, University of California Davis), hNav1.4 (Frank Lehmann-Horn, University of Ulm), or hKv2.1 channels (James Trimmer, University of California Davis) were bathed in extracellular solution containing (in mM): 160 NaCl; 4.5 KCl; 1 MgCl2; 2 CaCl2; 10 HEPES [pH was adjusted to 7.4 using NaOH (310 mOsm)]. Pipettes were filled with intracellular solution containing (in mM): 145 KF; 2 MgCl2; 10 ethylene glycol tetraacetic acid; 10 HEPES (pH adjusted to 7.2 with KOH; 300 mOsm). Neuroblastoma N1E-115 cells (ATCC, Manassa, Va., USA) expressing Nav1.2 were patched with a CsF internal solution consisting of (in mM): 10 NaF; 110 CsF; 20 CsCl; 2 ethylene glycol tetraacetic acid; 10 HEPES (CsOH to pH 7.35; 300 mOsm). All pipette tip resistances were 2-4 MΩ. Series resistances of 3-10 MΩ were compensated 40-80%. All cells were voltage-clamped to a holding potential of −90 mV unless otherwise specified. The sampling frequency was 5 kHz. Na^+ currents were elicited by 30-ms pulse to 0 mV from −90 mV applied every 10 s. […]

[2] abbreviates: ASP anticonvulsant testing, suspension in 0.5% methylcellulose.

Chain of Nav1.4 (P35499 whole entry): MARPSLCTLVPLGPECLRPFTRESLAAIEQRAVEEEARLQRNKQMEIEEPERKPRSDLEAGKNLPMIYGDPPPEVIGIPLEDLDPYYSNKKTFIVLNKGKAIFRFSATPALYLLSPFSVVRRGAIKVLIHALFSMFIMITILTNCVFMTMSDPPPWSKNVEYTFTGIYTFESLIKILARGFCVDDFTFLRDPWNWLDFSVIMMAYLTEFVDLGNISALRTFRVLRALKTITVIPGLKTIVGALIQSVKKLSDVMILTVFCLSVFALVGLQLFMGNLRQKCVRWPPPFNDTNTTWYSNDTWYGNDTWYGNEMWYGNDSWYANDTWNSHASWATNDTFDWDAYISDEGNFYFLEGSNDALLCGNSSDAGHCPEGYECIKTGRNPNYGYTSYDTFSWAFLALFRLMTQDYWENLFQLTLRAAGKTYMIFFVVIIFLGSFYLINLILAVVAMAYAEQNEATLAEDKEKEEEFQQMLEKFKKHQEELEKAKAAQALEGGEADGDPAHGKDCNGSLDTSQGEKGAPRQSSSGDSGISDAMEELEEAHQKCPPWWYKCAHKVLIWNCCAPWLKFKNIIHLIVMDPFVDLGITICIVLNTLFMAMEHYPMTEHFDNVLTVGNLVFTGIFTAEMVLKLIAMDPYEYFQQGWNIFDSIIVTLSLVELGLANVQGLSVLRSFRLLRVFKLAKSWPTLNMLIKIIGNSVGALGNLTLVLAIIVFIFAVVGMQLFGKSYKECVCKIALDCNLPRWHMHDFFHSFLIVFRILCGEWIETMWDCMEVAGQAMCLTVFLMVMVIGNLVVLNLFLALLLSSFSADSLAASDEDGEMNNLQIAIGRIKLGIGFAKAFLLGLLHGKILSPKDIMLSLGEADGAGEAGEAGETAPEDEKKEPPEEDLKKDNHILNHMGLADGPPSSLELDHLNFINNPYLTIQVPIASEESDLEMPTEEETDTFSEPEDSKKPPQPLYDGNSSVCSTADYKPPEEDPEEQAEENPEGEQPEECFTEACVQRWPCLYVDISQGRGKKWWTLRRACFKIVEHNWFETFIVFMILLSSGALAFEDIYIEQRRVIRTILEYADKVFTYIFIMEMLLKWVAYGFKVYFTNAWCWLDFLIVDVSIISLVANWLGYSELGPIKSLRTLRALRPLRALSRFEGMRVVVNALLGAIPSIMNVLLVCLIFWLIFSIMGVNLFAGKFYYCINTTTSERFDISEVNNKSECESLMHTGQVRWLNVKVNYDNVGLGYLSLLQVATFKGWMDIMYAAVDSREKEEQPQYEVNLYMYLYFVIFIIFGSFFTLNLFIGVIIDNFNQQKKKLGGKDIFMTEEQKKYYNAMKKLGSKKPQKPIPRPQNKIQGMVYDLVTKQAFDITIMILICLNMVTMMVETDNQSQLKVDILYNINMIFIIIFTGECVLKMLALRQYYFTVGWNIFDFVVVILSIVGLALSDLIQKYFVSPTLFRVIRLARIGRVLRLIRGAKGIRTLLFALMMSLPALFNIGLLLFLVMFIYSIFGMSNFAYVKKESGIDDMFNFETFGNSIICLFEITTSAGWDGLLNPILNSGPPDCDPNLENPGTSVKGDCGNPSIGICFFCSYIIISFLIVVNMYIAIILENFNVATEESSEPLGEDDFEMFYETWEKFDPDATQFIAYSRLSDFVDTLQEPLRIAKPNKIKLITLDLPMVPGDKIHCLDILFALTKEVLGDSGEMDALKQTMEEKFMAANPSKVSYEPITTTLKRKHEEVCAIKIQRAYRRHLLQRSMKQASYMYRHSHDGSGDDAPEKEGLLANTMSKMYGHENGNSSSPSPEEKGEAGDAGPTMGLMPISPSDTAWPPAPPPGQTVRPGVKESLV

The term ED50 denotes the midpoint of the dose-response relation. The term TD50 denotes the dose at which the toxic effect under study appears in half of the subjects. One may read the EC50 as the concentration giving half of the maximal effect. The IC50 is the midpoint of a concentration-inhibition curve. As for `Nc1nc2ccc(SC(F)(F)F)cc2s1` [SKA-19, 6-((trifluoromethyl)thio)benzo[d]thiazol-2-amine], the duration of activity in the series with MES-induced seizures (setting [2]) worked out at 4 h. Further, the “time of peak activity / maximal effect” value with MES-induced seizures (setting [2]) lay in the range of 1 to 2 h. The ED50 in the series with MES-induced seizures (Mus musculus, ip, mice, i.p., methylcellulose suspension, time of peak effect (SKA-19: 2 h), read-out: ED50, seizure protection in the MES test) turned out to be 4.8 mg/kg. Moreover, the “protection in the MES model, initial screen” value is listed as “partial protection” in the series with MES-induced seizures (mice, i.p., 3 mg/kg); “fully protected” in the series with MES-induced seizures (mice, i.p., 10, 30 and 100 mg/kg). Further, in the series with MES-induced seizures (mice, i.p., suspension), the “protective index PI (TD50/ED50)” value was 6.2. The values for the TD50 in series [1] (CF No. 1 (Carworth Farms)) and in series [1] were 29.8 mg/kg and 29.7 mg/kg, respectively. For the same compound, in series [1] (albino CF No. 1 (Carworth Farms)), the TD50 at 2 h came to 29.8 mg/kg. Further, the “neurological deficit, rotorod” value in the series on mice (100 mg/kg) is “inability to clasp the rotorod”. Also, the mice that died entry in the series with mice (100 mg/kg i.p.) is on record as “two out of 8”. In addition, the “neurological deficit / lethality” value in the series with mice (300 mg/kg) is recorded as “sedation or death”. The “ability of mice to stay on the rotorod” value in the series with mice (0.5 and 4 hours after 3, 10 and 30 mg/kg) was “no impairment”. In addition, the 50% effective concentration (EC50) at KCa2.3 (SK3) was 15 µM. On Nav1.4, the “block of Nav1.4” value is reported as “low micromolar range”. For the same compound, at Nav1.4 (read-out: EC50 or IC50, Nav1.4), the concentration for half-maximal inhibition (IC50) was determined as 4.5 ± 2.7 µM.

The values above are taken from patent US9675591B2, “Methods for treating seizure disorders and pain” (THE REGENTS OF THE UNIVERSITY OF CALIFORNIA, priority 2013, dated 2017).
